Structures can show the parent of a compound that is named as a salt.
Target: T1, KMO mouse enzyme (Mus musculus, UniProt Q91WN4)
T1 construct: KMO enzyme prepared at Evotec from mouse liver (4-6 weeks old) via mitochondria isolation; from tissue; host or cells: mouse liver (4-6 weeks old), mitochondria isolation, prepared at Evotec
Test: KMO mouse enzyme assay: L-Kynurenine hydroxylation to 3-Hydroxy-Kynurenine monitored by LC/MS (MRM)
Type: biochemical
Conditions: compound at 10 μM, KMO enzyme from mouse liver mitochondria; for inhibition at 10 µM: read-out: INH.Mouse @ 10 μM
Protocol: A method of monitoring L-Kynurenine (KYN) hydroxylation to form 3-Hydroxy-Kynurenine (3OH-KYN) by LC/MS is described. Product is quantified by multiple reaction monitoring (MRM method).
• Compound: Stock concentrations: 10 mM in 100% DMSO • Enzyme: KMO enzyme prepared at Evotec from mouse liver (4-6 weeks old) via mitochondria isolation as described in the literature • Substrate: L-Kynurenine (Sigma: Cat# K3750, stock concentration: 10 mM in 100 mM potassium phosphate buffer, pH 7.4) Assay Conditions: […]

T1 sequence (Q91WN4 whole entry): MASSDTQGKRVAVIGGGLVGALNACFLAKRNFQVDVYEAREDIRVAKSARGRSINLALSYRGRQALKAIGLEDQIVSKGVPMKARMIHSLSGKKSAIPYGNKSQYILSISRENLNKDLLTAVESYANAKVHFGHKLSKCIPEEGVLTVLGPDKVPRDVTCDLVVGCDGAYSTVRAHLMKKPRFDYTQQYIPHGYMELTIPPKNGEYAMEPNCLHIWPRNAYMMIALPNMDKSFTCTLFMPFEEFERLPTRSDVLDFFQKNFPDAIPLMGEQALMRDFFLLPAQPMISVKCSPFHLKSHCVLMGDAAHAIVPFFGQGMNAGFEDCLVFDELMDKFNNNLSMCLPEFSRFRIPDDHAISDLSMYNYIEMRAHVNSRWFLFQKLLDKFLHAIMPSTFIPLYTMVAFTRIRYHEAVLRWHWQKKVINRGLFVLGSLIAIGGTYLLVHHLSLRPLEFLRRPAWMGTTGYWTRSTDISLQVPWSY

## CCCNC(=O)c1cc(-c2cccc(Cl)c2)ncn1 [6-(3-Chloro-phenyl)-pyrimidine-4-carboxylic acid propylamide]
  inhibition at 10 µM: 72.4%

## O=C(Nc1cnccn1)c1cc(-c2cccc(Cl)c2)ncn1 [6-(3-Chloro-phenyl)-pyrimidine-4-carboxylic acid pyrazin-2-ylamide]
  inhibition at 10 µM: 100%

## O=C(Nc1cccnn1)c1cc(-c2cccc(Cl)c2)ncn1 [6-(3-Chloro-phenyl)-pyrimidine-4-carboxylic acid pyridazin-3-ylamide]
  inhibition at 10 µM: 100%

## O=C(Nc1ccccn1)c1cc(-c2cccc(Cl)c2)ncn1 [6-(3-Chloro-phenyl)-pyrimidine-4-carboxylic acid pyridin-2-ylamide]
  inhibition at 10 µM: 100%

## O=C(Nc1cccnc1)c1cc(-c2cccc(Cl)c2)ncn1 [6-(3-Chloro-phenyl)-pyrimidine-4-carboxylic acid pyridin-3-ylamide]
  inhibition at 10 µM: 98.6%

## O=C(Nc1ccncc1)c1cc(-c2cccc(Cl)c2)ncn1 [6-(3-Chloro-phenyl)-pyrimidine-4-carboxylic acid pyridin-4-ylamide]
  inhibition at 10 µM: 100%

## O=C(Nc1ncccn1)c1cc(-c2cccc(Cl)c2)ncn1 [6-(3-Chloro-phenyl)-pyrimidine-4-carboxylic acid pyrimidin-2-ylamide]
  inhibition at 10 µM: 100%

## O=C(Nc1cncnc1)c1cc(-c2cccc(Cl)c2)ncn1 [6-(3-Chloro-phenyl)-pyrimidine-4-carboxylic acid pyrimidin-5-ylamide]
  inhibition at 10 µM: 100%

## O=C(Nc1nccs1)c1cc(-c2cccc(Cl)c2)ncn1 [6-(3-Chloro-phenyl)-pyrimidine-4-carboxylic acid thiazol-2-ylamide]
  inhibition at 10 µM: 100%

## CN1CCN(c2ccc(NC(=O)c3cc(-c4cccc(Cl)c4)ncn3)cc2)CC1 [6-(3-Chloro-phenyl)-pyrimidine-4-carboxylicacid[4-(4-methyl-piperazin-1-yl)-phenyl]-amide]
  INH.Mouse @ 10 μM: 87.7

## O=C(O)c1cc(-c2cc(F)cc(C(F)(F)F)c2)ncn1 [6-(3-Fluoro-5-trifluoromethyl-phenyl)-pyrimidine-4-carboxylic acid]
  inhibition at 10 µM: 75.8%

## COC(=O)c1cc(-c2cccc(F)c2)ncn1 [6-(3-Fluoro-phenyl)-pyrimidine-4-carboxylic acid methyl ester]
  inhibition at 10 µM: 100%

## O=C(Nc1cccnc1)c1cc(-c2cccc(F)c2)ncn1 [6-(3-Fluoro-phenyl)-pyrimidine-4-carboxylic acid pyridin-3-ylamide]
  inhibition at 10 µM: 94.8%

## COC(=O)c1cc(-c2cccc(OC)c2)ncn1 [6-(3-Methoxy-phenyl)-pyrimidine-4-carboxylic acid methyl ester]
  inhibition at 10 µM: 77.5%

## COc1cccc(-c2cc(C(=O)O)ncn2)c1 [6-(3-Methoxy-phenyl)-pyrimidine-4-carboxylic acid]
  inhibition at 10 µM: 81%

## COC(=O)c1cc(-c2cccc(C(F)(F)F)c2)ncn1 [6-(3-Trifluoromethyl-phenyl)-pyrimidine-4-carboxylic acid methyl ester]
  inhibition at 10 µM: 94.5%

## COC(=O)c1cc(-c2ccc(F)c(C(F)(F)F)c2)ncn1 [6-(4-Fluoro-3-trifluoromethyl-phenyl)-pyrimidine-4-carboxylic acid methyl ester]
  inhibition at 10 µM: 92.7%

## COc1ccc(-c2cc(C(=O)O)ncn2)cc1 [6-(4-Methoxy-phenyl)-pyrimidine-4-carboxylic acid]
  inhibition at 10 µM: 100%

## COC(=O)c1cc(-c2cc(Cl)ccc2F)ncn1 [6-(5-Chloro-2-fluoro-phenyl)-pyrimidine-4-carboxylic acid methyl ester]
  inhibition at 10 µM: 100%

## O=C(O)c1cc(-c2cc(Cl)ccc2F)ncn1 [6-(5-Chloro-2-fluoro-phenyl)-pyrimidine-4-carboxylic acid]
  inhibition at 10 µM: 100%

## COC(=O)c1cc(-c2cncc(Cl)c2)ncn1 [6-(5-Chloro-pyridin-3-yl)-pyrimidine-4-carboxylic acid methyl ester]
  inhibition at 10 µM: 93.2%

## O=C(O)c1cc(-c2cncc(Cl)c2)ncn1 [6-(5-Chloro-pyridin-3-yl)-pyrimidine-4-carboxylic acid]
  inhibition at 10 µM: 91.7%

## COC(=O)c1cc(-c2cncc(F)c2)ncn1 [6-(5-Fluoro-pyridin-3-yl)-pyrimidine-4-carboxylic acid methyl ester]
  inhibition at 10 µM: 87.2%

## O=C(O)c1cc(-c2cncc(F)c2)ncn1 [6-(5-Fluoro-pyridin-3-yl)-pyrimidine-4-carboxylic acid]
  inhibition at 10 µM: 96.1%

## COC(=O)c1cc(-c2ccccc2)ncn1 [6-Phenyl-pyrimidine-4-carboxylic acid methyl ester]
  inhibition at 10 µM: 100%

## COC(=O)c1cc(-c2cccnc2)ncn1 [6-Pyridin-3-yl-pyrimidine-4-carboxylic acid methyl ester trifluoroacetic acid salt]
  inhibition at 10 µM: 74.5%

## COC(=O)c1cc(-c2cccc(C)c2)ncn1 [6-m-Tolyl-pyrimidine-4-carboxylic acid methyl ester]
  inhibition at 10 µM: 96.3%

## O=C(c1cc(-c2ccc(Cl)c(Cl)c2)ncn1)N1CCc2cc(Cl)ccc21 [(5-Chloro-2,3-dihydro-indol-1-yl)-[6-(3,4-dichloro-phenyl)-pyrimidin-4-yl]-methanone]
  inhibition at 10 µM: 100%

## O=C(c1cc(-c2cccc(Cl)c2)ncn1)N1CCc2cc(Cl)ccc21 [(5-Chloro-2,3-dihydro-indol-1-yl)-[6-(3-chloro-phenyl)-pyrimidin-4-yl]-methanone]
  inhibition at 10 µM: 100%

## NC(=O)[C@H]1CCCN1C(=O)c1cc(-c2cccc(Cl)c2)ncn1 [(R)-1-[6-(3-Chloro-phenyl)-pyrimidine-4-carbonyl]-pyrrolidine-2-carboxylic acid amide]
  inhibition at 10 µM: 95.4%

## NC(=O)[C@@H]1CCCN1C(=O)c1cc(-c2cccc(Cl)c2)ncn1 [(S)-1-[6-(3-Chloro-phenyl)-pyrimidine-4-carbonyl]-pyrrolidine-2-carboxylic acid amide]
  inhibition at 10 µM: 91.1%

## O=C(c1cc(-c2cccc(Cl)c2)ncn1)N1CCC1 [Azetidin-1-yl-[6-(3-chloro-phenyl)-pyrimidin-4-yl]-methanone]
  inhibition at 10 µM: 100%

## COc1ccc(S(=O)(=O)Nc2cc(-c3ccc(Cl)c(Cl)c3)ncn2)cc1OC [N-[6-(3,4-Dichloro-phenyl)-pyrimidin-4-yl]-3,4-dimethoxy-benzenesulfonamide]
  inhibition at 10 µM: 85%

## CS(=O)(=O)Nc1cc(-c2ccc(Cl)c(Cl)c2)ncn1 [N-[6-(3,4-Dichloro-phenyl)-pyrimidin-4-yl]-methanesulfonamide]
  inhibition at 10 µM: 51.2%

## CS(=O)(=O)NC(=O)c1cc(-c2cccc(Cl)c2)ncn1 [N-[6-(3-Chloro-phenyl)-pyrimidine-4-carbonyl]-methanesulfonamide]
  inhibition at 10 µM: 99.5%

## O=S(=O)(O)c1cc(-c2cccc(Cl)c2)ncn1 [Sodium; 6-(3-chloro-phenyl)-pyrimidine-4-sulfonate]
  inhibition at 10 µM: 97.1%

## O=C(c1cc(-c2ccc(Cl)c(Cl)c2)ccn1)N1CCc2ccccc21 [[4-(3,4-Dichloro-phenyl)-pyridin-2-yl]-(2,3-dihydro-indol-1-yl)-methanone]
  inhibition at 10 µM: 96.6%

## O=C(c1cc(-c2cc(Cl)cc(Cl)c2)ccn1)N1CCc2ccccc21 [[4-(3,5-Dichloro-phenyl)-pyridin-2-yl]-(2,3-dihydro-indol-1-yl)-methanone]
  inhibition at 10 µM: 54.5%

## O=C(c1cc(-c2cccc(Cl)c2)ccn1)N1CCc2ccccc21 [[4-(3-Chloro-phenyl)-pyridin-2-yl]-(2,3-dihydro-indol-1-yl)-methanone]
  inhibition at 10 µM: 100%

Reference: patent US9145373B2, “Certain kynurenine-3-monooxygenase inhibitors, pharmaceutical compositions, and methods of use thereof” (CHDI FOUNDATION, INC., priority 2008, dated 2015)
